Target: T1, Inositol hexakisphosphate kinase 2 (Homo sapiens, UniProt Q9UHH9)
T1 sequence (Q9UHH9 whole entry): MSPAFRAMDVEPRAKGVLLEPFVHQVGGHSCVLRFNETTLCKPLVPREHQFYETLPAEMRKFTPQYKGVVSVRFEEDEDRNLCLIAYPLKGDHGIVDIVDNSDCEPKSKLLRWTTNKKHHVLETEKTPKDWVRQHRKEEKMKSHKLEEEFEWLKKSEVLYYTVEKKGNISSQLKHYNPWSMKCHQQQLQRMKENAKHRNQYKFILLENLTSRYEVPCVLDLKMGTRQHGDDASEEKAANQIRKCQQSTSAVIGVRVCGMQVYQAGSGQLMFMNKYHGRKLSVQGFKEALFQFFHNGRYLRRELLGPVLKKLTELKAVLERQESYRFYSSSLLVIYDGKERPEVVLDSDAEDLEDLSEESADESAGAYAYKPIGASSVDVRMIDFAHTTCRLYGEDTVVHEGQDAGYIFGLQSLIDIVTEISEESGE
Test: Inhibition of IP6K2 (unknown origin) incubated for 2 hrs in presence of ATP by ADPGlo reagent based assay

O=c1[nH]cnc2ccc(N3CCc4ccccc4CC3)cc12 and O=c1[nH]cnc2ccc(N3CCCC3)cc12 cannot be ordered by IC50: > 200 µM for the first, > 200 µM for the second.

Going from O=c1[nH]cnc2ccc(C#Cc3ccccc3)cc12 to O=c1[nH]cnc2ccc(CCc3ccccc3)cc12, the IC50 falls from 96.3 µM to 51.5 µM (1.9-fold). The second is the more potent here.

Going from O=c1[nH]cnc2ccc(C3=Cc4ccccc4C3)cc12 to O=c1[nH]cnc2ccc(/C=C/c3ccccc3)cc12, the IC50 falls from > 200 µM to 193 µM.

First: O=c1[nH]cnc2ccc(N3C[C@H]4CCCC[C@H]4C3)cc12
Second: O=c1[nH]cnc2ccc(N3CC[C@H]4CCCC[C@@H]4C3)cc12
The IC50 of the first is higher: > 200 µM for the first, 91.9 µM for the second. The second is the more potent here.

First: O=c1[nH]cnc2ccc(/C=C/c3ccc(F)cc3)cc12
Second: N#Cc1cc(N2CCCC2)cc2c(=O)[nH]cnc12
The IC50 of the first is higher: > 200 µM for the first, 28.8 µM for the second. The second is the more potent here.

Target: Inositol hexakisphosphate kinase 1 (Homo sapiens, UniProt Q92551)
Sequence (Q92551 whole entry): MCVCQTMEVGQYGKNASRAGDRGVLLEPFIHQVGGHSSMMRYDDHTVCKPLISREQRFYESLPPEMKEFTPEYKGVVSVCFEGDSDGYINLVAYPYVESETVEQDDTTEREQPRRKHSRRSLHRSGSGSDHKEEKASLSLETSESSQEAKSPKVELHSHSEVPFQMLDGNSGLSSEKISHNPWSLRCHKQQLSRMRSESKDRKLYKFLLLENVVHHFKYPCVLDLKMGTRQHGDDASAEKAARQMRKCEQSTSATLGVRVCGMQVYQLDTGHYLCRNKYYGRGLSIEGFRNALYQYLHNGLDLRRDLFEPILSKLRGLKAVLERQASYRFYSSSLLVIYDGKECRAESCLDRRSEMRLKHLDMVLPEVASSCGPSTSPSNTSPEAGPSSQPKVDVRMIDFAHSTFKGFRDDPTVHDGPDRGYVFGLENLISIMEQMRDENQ
Test: Inhibition of IP6K1 (unknown origin) incubated for 30 min in presence of ATP by ADPGlo reagent based assay

Going from CN(C)c1ccc2nc[nH]c(=O)c2c1 to CN(Cc1ccccc1)c1ccc2nc[nH]c(=O)c2c1, the IC50 falls from 75.4 µM to 15.4 µM (4.9-fold).

Compared with O=c1[nH]cnc2ccc(N3CCCc4ccccc4C3)cc12, O=c1[nH]cnc2ccc(N3CCc4ccccc4C3)cc12 is 2.2-fold higher in IC50: 0.51 µM for the first, 1.12 µM for the second. The first is the more potent here.

O=c1[nH]cnc2ccc(N3CCCC3)c(Br)c12 and O=c1[nH]cnc2ccc(N3CCCC3)c(Cl)c12 cannot be ordered by IC50: > 200 µM for the first, > 200 µM for the second.

Going from O=c1[nH]cnc2ccc(NCc3ccccc3)cc12 to O=c1[nH]cnc2ccc(OCc3ccccc3)cc12, the IC50 falls from 30.7 µM to 13.3 µM (2.3-fold).

First: O=c1[nH]cnc2ccc([N+]3=Cc4ccccc4CC3)cc12
Second: O=c1[nH]cnc2ccc([N+]3=Cc4ccccc4CCC3)cc12
The IC50 of the first is 16-fold lower: 2.88 µM for the first, 45.2 µM for the second.

First: O=c1[nH]cnc2c(F)cc(N3CCCC3)cc12
Second: Nc1cc(N2CCCC2)cc2c(=O)[nH]cnc12
The IC50 of the first is 28-fold lower: 6.84 µM for the first, 189 µM for the second.

First: Nc1cc2nc[nH]c(=O)c2cc1N1CCCC1
Second: O=c1[nH]cnc2cc(F)c(N3CCCC3)cc12
The IC50 of the first is 2.8-fold higher: 34.3 µM for the first, 12.2 µM for the second.

Going from O=C(O)c1cc(/C=C/c2ccccc2)cc2c(=O)[nH]cnc12 to O=c1[nH]cnc2c(Cl)cc(/C=C/c3ccccc3)cc12, the IC50 rises from 67.2 µM to > 200 µM.

Compared with Cc1cc(F)ccc1-c1cc(O)c2nc[nH]c(=O)c2c1, CN(C)c1cccc(-c2cc(O)c3nc[nH]c(=O)c3c2)c1 is lower in IC50: > 200 µM for the first, 37.4 µM for the second.

Going from Nc1ccc(N2CCCC2)cc1C(=O)O to Nc1nc2ccc(N3CCCC3)cc2c(=O)[nH]1, the IC50 rises from 22.7 µM to > 200 µM. The first is the more potent here.

Cn1cnc2ccc(/C=C/c3ccccc3)cc2c1=O and Cc1nc2ccc(/C=C/c3ccccc3)cc2c(=O)[nH]1 are within 1.5-fold of each other in IC50: 112 µM for the first, 85.3 µM for the second.

Compared with O=c1[nH]cnc2c([N+](=O)[O-])cc(N3CCCC3)cc12, O=c1[nH]cnc2c(Cl)cc(N3CCCC3)cc12 is lower in IC50: > 200 µM for the first, 2.25 µM for the second. The second is the more potent here.

Compared with O=c1[nH]cnc2c(Cl)cc(N3CCc4ccccc4CC3)cc12, Nc1cc2nc[nH]c(=O)c2cc1N1Cc2ccccc2C1 is lower in IC50: > 200 µM for the first, 0.757 µM for the second.

First: O=c1[nH]cnc2ncc(/C=C/c3ccccc3)cc12
Second: O=c1[nH]cnc2ccc(/C=C/c3ccccn3)cc12
The IC50 of the first is 3.6-fold higher: 118 µM for the first, 32.4 µM for the second.

CN(C)C1CCN(c2ccc3nc[nH]c(=O)c3c2)CC1 and CN1CCN(c2ccc3nc[nH]c(=O)c3c2)CC1 cannot be ordered by IC50: > 200 µM for the first, > 200 µM for the second.

First: O=S1(=O)NC=Nc2ccc(N3CCCC3)cc21
Second: O=c1[nH]cnc2ccc(N3CCCCC3)cc12
The IC50 of the first is higher: > 200 µM for the first, 25.9 µM for the second.

Going from O=c1[nH]cnc2ccc(/C=C/c3ccncc3)cc12 to O=C1CCNc2ccc(/C=C/c3ccccc3)cc21, the IC50 rises from 127 µM to > 200 µM. The first is the more potent here.

Compared with O=c1[nH]cnc2ccc(N3CCCC3)nc12, O=c1[nH]cnc2cnc(N3CCCC3)cc12 is lower in IC50: > 200 µM for the first, 94.4 µM for the second.

First: O=c1[nH]cnc2cc([N+](=O)[O-])c(N3Cc4ccccc4C3)cc12
Second: O=c1[nH]cnc2ccc(N3Cc4cccc(F)c4C3)cc12
The IC50 of the first is 2.3-fold higher: 2.41 µM for the first, 1.07 µM for the second. The second is the more potent here.

Cc1nc2ccc(N3CCCC3)cc2c(=O)[nH]1 and O=c1[nH]c(=O)c2cc(N3CCCC3)ccc2[nH]1 cannot be ordered by IC50: > 200 µM for the first, > 200 µM for the second.

Going from O=c1[nH]cnc2ccc(NC3CCCCC3)cc12 to O=c1[nH]cnc2ccc(N3CCC(c4ccccc4)CC3)cc12, the IC50 falls from 71.5 µM to 15.3 µM (4.7-fold).

First: Nc1ncnc2ccc(N3CCCC3)cc12
Second: O=C1NCCc2ccc(N3CCCC3)cc21
The IC50 of the first is lower: 48.9 µM for the first, > 200 µM for the second. The first is the more potent here.

First: O=c1[nH]cnc2cc(N3CCCC3)c(Br)cc12
Second: O=C1CCCc2ccc(N3CCCC3)cc21
The IC50 of the first is lower: 47.6 µM for the first, > 200 µM for the second. The first is the more potent here.

First: c1cc2c(cc1N1CCCC1)CNCC2
Second: CC1(C)C[N+](c2ccc3nc[nH]c(=O)c3c2)=Cc2ccccc21
The IC50 of the first is higher: > 200 µM for the first, 0.595 µM for the second.

System: not listed separately
Test: Selectivity index, ratio of IC50 for IP6K2 (unknown origin) to ratio of IC50 for IP6K3 (unknown origin)

Work on O=C(O)c1cccc(-c2oc3cc(O)c(O)cc3c(=O)c2O)c1 yielded a Ratio IC50 of 5.
